The source of these data is patent publication US20160015770A1, “COMPOSITIONS FOR TREATMENT OF RETINAL DETACHMENT” (THE REGENTS OF THE UNIVERSITY OF MICHIGAN, priority 2013, published 2016).

In this test the target is T1, calpain 1 (Rattus norvegicus, UniProt P97571).
T1 construct: Retinas from experimental eyes with detachment (detached portion of retina only) and control eyes without detachment were dissected from the RPE-choroid, homogenized, and lysed; from tissue; host or cells: rat retina (in vivo retinal detachment model)
T1 sequence (P97571 1-713): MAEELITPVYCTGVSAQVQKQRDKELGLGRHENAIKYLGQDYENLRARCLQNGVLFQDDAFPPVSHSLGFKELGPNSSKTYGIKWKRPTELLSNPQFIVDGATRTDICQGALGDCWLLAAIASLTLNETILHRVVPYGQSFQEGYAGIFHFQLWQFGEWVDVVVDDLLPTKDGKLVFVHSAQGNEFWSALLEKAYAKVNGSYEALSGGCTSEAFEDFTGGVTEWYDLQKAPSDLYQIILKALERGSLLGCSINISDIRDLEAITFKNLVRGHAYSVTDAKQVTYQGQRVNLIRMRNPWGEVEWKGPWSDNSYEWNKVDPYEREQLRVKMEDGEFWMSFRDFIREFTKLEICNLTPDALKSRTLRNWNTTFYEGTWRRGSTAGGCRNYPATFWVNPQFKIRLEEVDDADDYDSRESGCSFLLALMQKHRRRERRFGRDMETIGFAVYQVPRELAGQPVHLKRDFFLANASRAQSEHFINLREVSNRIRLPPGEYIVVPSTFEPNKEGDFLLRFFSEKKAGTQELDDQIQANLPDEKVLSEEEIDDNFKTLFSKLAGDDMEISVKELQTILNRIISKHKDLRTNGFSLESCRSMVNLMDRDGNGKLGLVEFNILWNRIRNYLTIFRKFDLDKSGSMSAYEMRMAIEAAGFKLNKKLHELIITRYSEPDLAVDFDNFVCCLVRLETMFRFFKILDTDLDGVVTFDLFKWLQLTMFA
T1 sequence (Q64537 1-270 partner): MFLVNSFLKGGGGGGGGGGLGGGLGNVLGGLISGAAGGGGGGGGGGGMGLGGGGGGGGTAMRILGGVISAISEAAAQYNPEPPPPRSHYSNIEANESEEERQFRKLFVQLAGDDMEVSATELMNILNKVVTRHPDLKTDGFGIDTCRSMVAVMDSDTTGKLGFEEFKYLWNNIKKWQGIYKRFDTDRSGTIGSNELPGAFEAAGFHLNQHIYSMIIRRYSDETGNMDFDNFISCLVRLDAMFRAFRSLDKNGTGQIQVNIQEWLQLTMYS
Kind of test: Experimental retinal detachment, western blot of calpain 1 specific cleaved alpha-spectrin in retina. The test is classed as in vivo. Particulars: 0.2 μg subretinal at time of detachment, 7 days after detachment, vs vehicle (DMSO).

“Also recorded” adds a separate entry of the source.

Excerpt: Detachments were created in adult male Brown-Norway rats (300-400 g; Charles River Laboratories, Wilmington, Mass.) as described previously. Briefly, rodents were anesthetized with a 50:50 mix of ketamine/xylazine, and pupils were dilated with topical phenylephrine (2.5%) and tropicamide (1%). A 20-gauge microvitreoretinal blade was used to create a sclerotomy 2 mm posterior to the limbus, carefully avoiding lens damage. A subretinal injector (Glaser, 32-gauge tip; BD Ophthalmic Systems, Franklin Lakes, N.J.) was introduced through the sclerotomy into the vitreous cavity and then through a peripheral retinotomy into the subretinal space. […]
Retinas from experimental eyes with detachment (detached portion of retina only) and control eyes without detachment were dissected from the RPE-choroid, homogenized, and lysed in buffer containing 10 mM HEPES (pH 7.6), 0.5% IgEPal, 42 mM KCl, 1 mM phenylmethylsulfonyl fluoride, 1 mM EDTA, 1 mM EGTA, 1 mM dithiothreitol, 5 mM MgCl2, and one tablet of protease inhibitors per 10 mL buffer (Complete Mini; Roche Diagnostics GmbH, Madison, Wis.). […] The protein concentration of the supernatant was then determined (DC Protein Assay kit; Bio-Rad Laboratories, Hercules, Calif.). The protein samples were separated on SDS-polyacrylamide gels (Tris-HCl Ready Gels; Bio-Rad Laboratories). […]

For `CCCC[C@@H](C=O)NC(=O)[C@H](CC(C)C)NC(=O)OCc1ccccc1` [calpeptin], the “cleaved calpain 1 specific alpha-spectrin in retina” value is reported as “significantly less; also recorded: less cleaved alpha-spectrin”.
